In PubChem BioAssay AID256 (DTP/NCI, 2004):
Inconclusive results and toxic doses are left out. The calls were made as follows: active = survival T/C of 150% or more; inactive = T/C below 125% in these data.

Test system: CD2F1 mice, L1210 leukemia ip, survival T/C
Experiment: NCI In Vivo Anticancer Drug Screen. Data for tumor model L1210 Leukemia (intraperitoneal) in CD2F1 (CDF1) mice
Conditions: higher = longer survival
Outline: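 Compound-dosed mice with transplantable tumor versus matched vehicle controls; endpoint ratio T/C reported.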

[1] = endpoint: mean survival time, dose: 25.0 mg/kg/injection, schedule: Q01DX009 (ip), vehicle: saline
[2] = endpoint: mean survival time, dose: 50.0 mg/kg/injection, schedule: Q01DX009 (ip), vehicle: saline
[3] = endpoint: mean survival time, dose: 100.0 mg/kg/injection, schedule: Q01DX009 (ip), vehicle: saline
[4] = endpoint: mean survival time, dose: 100.0 mg/kg/injection, schedule: Q01DX001 (ip), vehicle: saline with Tween-80
[5] = endpoint: mean survival time, dose: 200.0 mg/kg/injection, schedule: Q01DX001 (ip), vehicle: saline with Tween-80
[6] = endpoint: mean survival time, dose: 400.0 mg/kg/injection, schedule: Q01DX001 (ip), vehicle: saline with Tween-80
[7] = endpoint: mean survival time, dose: 100.0 mg/kg/injection, schedule: Q04DX003 (ip), vehicle: saline with Tween-80
[8] = endpoint: mean survival time, dose: 200.0 mg/kg/injection, schedule: Q04DX003 (ip), vehicle: saline with Tween-80
[9] = endpoint: mean survival time, dose: 400.0 mg/kg/injection, schedule: Q04DX003 (ip), vehicle: saline with Tween-80
[10] = endpoint: mean survival time, dose: 100.0 mg/kg/injection, schedule: Q01DX001 (ip), vehicle: Klucel (hydroxypropylcellulose) (HPC)
[11] = endpoint: mean survival time, dose: 200.0 mg/kg/injection, schedule: Q01DX001 (ip), vehicle: Klucel (hydroxypropylcellulose) (HPC)
[12] = endpoint: mean survival time, dose: 400.0 mg/kg/injection, schedule: Q01DX001 (ip), vehicle: Klucel (hydroxypropylcellulose) (HPC)
[13] = endpoint: mean survival time, dose: 100.0 mg/kg/injection, schedule: Q01DX009 (ip), vehicle: saline with Tween-80
[14] = endpoint: mean survival time, dose: 200.0 mg/kg/injection, schedule: Q01DX009 (ip), vehicle: saline with Tween-80
[15] = endpoint: mean survival time, dose: 400.0 mg/kg/injection, schedule: Q01DX009 (ip), vehicle: saline with Tween-80
[16] = endpoint: mean survival time, dose: 6.25 mg/kg/injection, schedule: Q01DX009 (ip), vehicle: saline with Tween-80
[17] = endpoint: mean survival time, dose: 12.5 mg/kg/injection, schedule: Q01DX009 (ip), vehicle: saline with Tween-80
[18] = endpoint: mean survival time, dose: 25.0 mg/kg/injection, schedule: Q01DX009 (ip), vehicle: saline with Tween-80
[19] = endpoint: mean survival time, dose: 75.0 mg/kg/injection, schedule: Q01DX001 (ip), vehicle: saline

Measured: T/C

O=C1c2ccccc2C(=O)c2c(NCCCCCO)ccc(NCCCCCO)c21
inactive: endpoint: mean survival time, dose: 16.0 mg/kg/injection, schedule: Q01DX009 (ip), vehicle: Klucel (hydroxypropylcellulose) (HPC) 102 % of control | endpoint: mean survival time, dose: 32.0 mg/kg/injection, schedule: Q01DX009 (ip), vehicle: Klucel (hydroxypropylcellulose) (HPC) 93 % of control | endpoint: mean survival time, dose: 64.0 mg/kg/injection, schedule: Q01DX009 (ip), vehicle: Klucel (hydroxypropylcellulose) (HPC) 96 % of control | endpoint: mean survival time, dose: 128.0 mg/kg/injection, schedule: Q01DX009 (ip), vehicle: Klucel (hydroxypropylcellulose) (HPC) 96 % of control | endpoint: mean survival time, dose: 256.0 mg/kg/injection, schedule: Q01DX009 (ip), vehicle: Klucel (hydroxypropylcellulose) (HPC) 104 % of control

CCN(CC)C(=O)c1ccc[n+](CC(=O)Nc2ccccc2)c1
inactive: [1] 108 % of control | [2] 105 % of control | [3] 97 % of control | endpoint: mean survival time, dose: 100.0 mg/kg/injection, schedule: Q04DX003 (ip), vehicle: saline 104 % of control

CCCCC(NC(=O)CN)C(=O)O (stereo unspecified)
inactive: endpoint: mean survival time, dose: 75.0 mg/kg/injection, schedule: Q04DX002 (ip), vehicle: saline with Tween-80 111 % of control | endpoint: mean survival time, dose: 150.0 mg/kg/injection, schedule: Q04DX002 (ip), vehicle: saline with Tween-80 91 % of control | endpoint: mean survival time, dose: 300.0 mg/kg/injection, schedule: Q04DX002 (ip), vehicle: saline with Tween-80 106 % of control

CCOc1ccccc1NC(=O)C(Br)C(Br)C(=O)O (stereo unspecified)
inactive: [4] 110 % of control | [5] 112 % of control | [6] 108 % of control

CC(=O)/C=C/c1ccc([N+](=O)[O-])cc1
inactive: endpoint: mean survival time, dose: 100.0 mg/kg/injection, schedule: Q04DX003 (ip), vehicle: saline sonified 102 % of control | endpoint: mean survival time, dose: 200.0 mg/kg/injection, schedule: Q04DX003 (ip), vehicle: saline sonified 102 % of control | endpoint: mean survival time, dose: 400.0 mg/kg/injection, schedule: Q04DX003 (ip), vehicle: saline sonified 95 % of control

CS(=O)(=O)OC(OS(C)(=O)=O)(OS(C)(=O)=O)OS(C)(=O)=O
inactive: [7] 111 % of control | [8] 105 % of control | [9] 105 % of control

c1ccc(N=C(C(=Nc2ccccc2)c2ccccn2)c2cccnc2)cc1
inactive: [10] 93 % of control | [11] 103 % of control | [12] 100 % of control

Nc1cc2nc3ccccc3sc-2cc1=O
inactive: endpoint: mean survival time, dose: 50.0 mg/kg/injection, schedule: Q01DX009 (ip), vehicle: saline with Tween-80 102 % of control | [13] 102 % of control | [14] 102 % of control | [15] 89 % of control

CCOC(=O)N1CCc2cc(OC)c(OC)cc2C1=C(c1ccccc1)c1ccccc1
inactive: [13] 91 % of control | [7] 86 % of control | [14] 95 % of control | [15] 88 % of control | [9] 86 % of control

NC(=S)N/N=C1\CC2CC1C1C=CCC21 (stereo unspecified)
inactive: endpoint: mean survival time, dose: 100.0 mg/kg/injection, schedule: Q04DX002 (ip), vehicle: saline with Tween-80 111 % of control | endpoint: mean survival time, dose: 200.0 mg/kg/injection, schedule: Q04DX002 (ip), vehicle: saline with Tween-80 98 % of control

CSc1nc(N)c2c(C(N)=O)cc(=O)n(C3OC(CO)C(O)C3O)c2n1 (stereo unspecified)
inactive: endpoint: mean survival time, dose: 12.5 mg/kg/injection, schedule: Q01DX005 (ip), vehicle: water 96 % of control | endpoint: mean survival time, dose: 25.0 mg/kg/injection, schedule: Q01DX005 (ip), vehicle: water 96 % of control | endpoint: mean survival time, dose: 50.0 mg/kg/injection, schedule: Q01DX005 (ip), vehicle: water 96 % of control | endpoint: mean survival time, dose: 100.0 mg/kg/injection, schedule: Q01DX005 (ip), vehicle: water 93 % of control | endpoint: mean survival time, dose: 200.0 mg/kg/injection, schedule: Q01DX005 (ip), vehicle: water 101 % of control

c1ccc2c3c([nH]c2c1)CN1CCNCC1C3 (stereo unspecified)
inactive: [16] 98 % of control | [17] 100 % of control | [18] 100 % of control

CNC(=O)CCl
inactive: [1] 103 % of control | [2] 105 % of control | [3] 104 % of control

COc1cc([N+](=O)[O-])ccc1NC(=O)Nc1ccc(Cl)cc1
inactive: [13] 89 % of control | [7] 91 % of control | [14] 87 % of control | [9] 107 % of control

O=C(Nc1ccc2c3c(ccc(C(=O)Nc4ccccc4)c13)CC2)c1ccccc1
inactive: [7] 100 % of control | [8] 100 % of control | [9] 92 % of control

CCN(CC)C(C)C(=O)Nc1c(C)cccc1Cl (stereo unspecified)
inactive: [1] 92 % of control | endpoint: mean survival time, dose: 100.0 mg/kg/injection, schedule: Q01DX001 (ip), vehicle: saline 109 % of control

Nc1cc(C(Br)(Br)Br)nc2ccccc12
inactive: [19] 103 % of control

BrC1=C(Br)C(Br)(Br)C(Br)=C1Br
inactive: endpoint: mean survival time, dose: 1.25 mg/kg/injection, schedule: Q01DX009 (ip), vehicle: saline with Tween-80 106 % of control | endpoint: mean survival time, dose: 2.5 mg/kg/injection, schedule: Q01DX009 (ip), vehicle: saline with Tween-80 101 % of control | endpoint: mean survival time, dose: 5.0 mg/kg/injection, schedule: Q01DX009 (ip), vehicle: saline with Tween-80 101 % of control

COc1ccc2c(c1)CC/C2=N/O
inactive: [7] 97 % of control | [8] 103 % of control | [9] 107 % of control

O=C(O)CCCCCCCCC#CC#CCCCc1ccccc1
inactive: endpoint: mean survival time, dose: 100.0 mg/kg/injection, schedule: Q04DX003 (ip), vehicle: Klucel (hydroxypropylcellulose) (HPC) 95 % of control | endpoint: mean survival time, dose: 200.0 mg/kg/injection, schedule: Q04DX003 (ip), vehicle: Klucel (hydroxypropylcellulose) (HPC) 95 % of control | endpoint: mean survival time, dose: 400.0 mg/kg/injection, schedule: Q04DX003 (ip), vehicle: Klucel (hydroxypropylcellulose) (HPC) 97 % of control

OCC1OC(n2cnc3cc4ccccc4cc32)C(O)C1O (stereo unspecified)
inactive: endpoint: median survival time, dose: 13.25 mg/kg/injection, schedule: Q01DX005 (ip), vehicle: saline with Tween-80 100 % of control | endpoint: median survival time, dose: 26.5 mg/kg/injection, schedule: Q01DX005 (ip), vehicle: saline with Tween-80 98 % of control | endpoint: median survival time, dose: 53.0 mg/kg/injection, schedule: Q01DX005 (ip), vehicle: saline with Tween-80 88 % of control | endpoint: median survival time, dose: 106.0 mg/kg/injection, schedule: Q01DX005 (ip), vehicle: saline with Tween-80 91 % of control

O=C(OC1C=Cc2ccccc21)c1ccc([N+](=O)[O-])cc1 (stereo unspecified)
inactive: [4] 97 % of control | [5] 90 % of control | [6] 97 % of control

Cc1ccc2c(c1)N(CCCN(C)C)c1ccccc1S2
inactive: endpoint: mean survival time, dose: 22.0 mg/kg/injection, schedule: Q04DX003 (ip), vehicle: saline 105 % of control | endpoint: mean survival time, dose: 33.0 mg/kg/injection, schedule: Q04DX003 (ip), vehicle: saline 97 % of control | endpoint: mean survival time, dose: 50.0 mg/kg/injection, schedule: Q04DX003 (ip), vehicle: saline 105 % of control | endpoint: mean survival time, dose: 75.0 mg/kg/injection, schedule: Q04DX003 (ip), vehicle: saline 103 % of control

O=c1[nH]ccc2sccc12
inactive: [13] 100 % of control | [7] 96 % of control | [14] 105 % of control | [9] 103 % of control

O=S(=O)(Nc1cc(N2CCCCC2)c(NS(=O)(=O)c2ccccc2)cc1N1CCCCC1)c1ccccc1
inactive: [10] 88 % of control | [11] 98 % of control | [12] 90 % of control

Cc1ccc([N+](=O)[O-])cc1NC(=O)Oc1ccc2c(C)cc(=O)oc2c1
inactive: endpoint: mean survival time, dose: 100.0 mg/kg/injection, schedule: Q04DX002 (ip), vehicle: Klucel (hydroxypropylcellulose) (HPC) 92 % of control | endpoint: mean survival time, dose: 200.0 mg/kg/injection, schedule: Q04DX002 (ip), vehicle: Klucel (hydroxypropylcellulose) (HPC) 100 % of control | endpoint: mean survival time, dose: 400.0 mg/kg/injection, schedule: Q04DX002 (ip), vehicle: Klucel (hydroxypropylcellulose) (HPC) 87 % of control

O=S1(=O)CCC1
inactive: [19] 114 % of control | endpoint: mean survival time, dose: 150.0 mg/kg/injection, schedule: Q01DX001 (ip), vehicle: saline 97 % of control | endpoint: mean survival time, dose: 300.0 mg/kg/injection, schedule: Q01DX001 (ip), vehicle: saline 105 % of control

OC(c1ccccc1)c1nc2ccccc2[nH]1 (stereo unspecified)
inactive: [13] 98 % of control | [7] 101 % of control | [14] 95 % of control | [8] 96 % of control | [15] 96 % of control | [9] 100 % of control

CN1CCCN(C)C1c1cc(Cl)ccc1O
inactive: [16] 98 % of control | [17] 98 % of control | [18] 98 % of control | [7] 103 % of control | [8] 121 % of control | [9] 95 % of control
